Measured values reported in US20110015080A1, “Solution-based methods for RNA expression profiling” (MASSACHUSETTS INSTITUTE OF TECHNOLOGY, priority 2005, published 2011).
Where “and” joins values, the source holds several entries; their conditions need not be identical. Equal entries are not always repeated.

Test system: HL60 (human promyelocytic leukemia) cells
Assay: LMA-FlexMAP analysis of microtiter well cultures of HL60 cells treated with tretinoin or DMSO, KNN classification
[1] = HL60 microtiter plate wells tretinoin40-47 (replicates)

CC1=C(/C=C/C(C)=C/C=C/C(C)=C/C(=O)O)C(C)(C)CCC1 [tretinoin, all-trans-retinoic acid]
NM_000698 LUA#14 FlexMap level [1]: 45.5 and 156 and 269 and 394 and 342 and 297.5 and 363 and 352 | NM_000875 LUA#55 FlexMap level [1]: 184 and 1002 and 1389.5 and 1772 and 1303 and 1192 and 1271 and 810 | NM_000884 LUA#81 FlexMap level [1]: 82 and 506 and 875 and 897 and 732.5 and 789 and 805 and 513.5 | NM_000962 LUA#7 FlexMap level [1]: 63.5 and 391 and 761 and 776 and 470 and 646.5 and 671.5 and 452 | NM_001034 LUA#67 FlexMap level [1]: 65 and 447 and 989 and 779 and 733.5 and 645 and 1063 and 476 | NM_001101 LUA#34 FlexMap level [1]: 260.5 and 1606 and 2206 and 2257 and 1647 and 1943 and 1881 and 904 | NM_001469 LUA#79 FlexMap level [1]: 65 and 320.5 and 885 and 739 and 765 and 734 and 561 and 370 | NM_001498 LUA#18 FlexMap level [1]: 126.5 and 890.5 and 1632 and 1563.5 and 1134 and 1467 and 1510 and 888 | NM_001684 LUA#23 FlexMap level [1]: 884 and 3012 and 3316.5 and 3512 and 3036 and 2755.5 and 2662 and 1478 | NM_001948 LUA#84 FlexMap level [1]: 255 and 1430 and 2470.5 and 2273.5 and 1891 and 2131 and 2132.5 and 1104 | NM_001974 LUA#11 FlexMap level [1]: 38.5 and 98 and 351 and 256 and 258 and 253.5 and 286.5 and 224 | NM_002166 LUA#25 FlexMap level [1]: 411.5 and 1693.5 and 2999 and 2964 and 2068 and 1985 and 2518 and 1239 | NM_002358 LUA#53 FlexMap level [1]: 64 and 339 and 572 and 611 and 366 and 481 and 531 and 433 | NM_002467 LUA#90 FlexMap level [1]: 383 and 983.5 and 1643 and 1800 and 1920 and 1518 and 1725 and 1034 | NM_002468 LUA#40 FlexMap level [1]: 48 and 285.5 and 324 and 728 and 896.5 and 343 and 632 and 464 | NM_002539 LUA#74 FlexMap level [1]: 94 and 559 and 886 and 952 and 715 and 861.5 and 822 and 535 | NM_002624 LUA#36 FlexMap level [1]: 53 and 180.5 and 397 and 381 and 330.5 and 336 and 400.5 and 394 | NM_002664 LUA#38 FlexMap level [1]: 73 and 478 and 906 and 798 and 599 and 773 and 748 and 512 | NM_002970 LUA#42 FlexMap level [1]: 92 and 298 and 598 and 589 and 622.5 and 577.5 and 586 and 478 | NM_002982 LUA#45 FlexMap level [1]: 286 and 2331 and 2514 and 4037 and 4231 and 2722 and 2898 and 1696.5 | NM_003132 LUA#68 FlexMap level [1]: 41 and 126 and 264.5 and 264 and 195.5 and 257 and 296 and 327.5 | NM_003172 LUA#19 FlexMap level [1]: 818 and 3200.5 and 3348 and 3577.5 and 2983 and 2898 and 2747 and 1471 | NM_003332 LUA#43 FlexMap level [1]: 274 and 646 and 1341.5 and 1324 and 1984.5 and 1651 and 2226 and 1241.5 | NM_003581 LUA#62 FlexMap level [1]: 62.5 and 372 and 962 and 808 and 751 and 735.5 and 801 and 515 | NM_003644 LUA#17 FlexMap level [1]: 69 and 255 and 415 and 428 and 359 and 374 and 395 and 302 | NM_003752 LUA#82 FlexMap level [1]: 115.5 and 536.5 and 1061 and 1015.5 and 768.5 and 1020 and 912.5 and 596 | NM_003825 LUA#8 FlexMap level [1]: 81.5 and 192.5 and 338 and 383.5 and 307.5 and 331 and 502 and 476.5 | NM_003879 LUA#24 FlexMap level [1]: 225 and 1355.5 and 1937.5 and 1983.5 and 1275 and 1677 and 1564 and 923 | NM_004079 LUA#21 FlexMap level [1]: 350 and 2202 and 3008 and 3030.5 and 2326 and 2816 and 2701 and 1488 | NM_004095 LUA#59 FlexMap level [1]: 72 and 383 and 714 and 665 and 496.5 and 650.5 and 593.5 and 442 | NM_004106 LUA#44 FlexMap level [1]: 47 and 142 and 253.5 and 302 and 321 and 271 and 273.5 and 267 | NM_004134 LUA#76 FlexMap level [1]: 78 and 432.5 and 873 and 866 and 531 and 759 and 744 and 493 | NM_004152 LUA#31 FlexMap level [1]: 58 and 337 and 710 and 811 and 628.5 and 782 and 652 and 408.5 | NM_004514 LUA#46 FlexMap level [1]: 176 and 834 and 1159.5 and 1224 and 964 and 992 and 1017 and 626 | NM_004526 LUA#88 FlexMap level [1]: 642 and 1081.5 and 1122 and 840 and 1033 and 1012 and 641.5 | NM_004602 LUA#32 FlexMap level [1]: 458.5 and 678 and 736.5 and 1957 and 1765.5 and 664 and 571.5 and 773.5 | NM_004631 LUA#52 FlexMap level [1]: 86.5 and 322 and 705 and 629 and 524 and 633 and 667 and 532 | NM_004723 LUA#20 FlexMap level [1]: 89 and 620 and 1056 and 982 and 761 and 886 and 853 and 494.5 | NM_004741 LUA#89 FlexMap level [1]: 131 and 383 and 972 and 1003 and 933 and 920 and 1126 and 571 | NM_004759 LUA#37 FlexMap level [1]: 40.5 and 67.5 and 186.5 and 169 and 134.5 and 142 and 145 and 190 | NM_004782 LUA#4 FlexMap level [1]: 163 and 811 and 1306 and 1264 and 1063.5 and 1077 and 1094 and 639 | NM_005008 LUA#77 FlexMap level [1]: 73 and 425 and 885 and 923 and 779.5 and 801 and 828 and 525 | NM_005375 LUA#86 FlexMap level [1]: 273 and 1380 and 2455 and 2357.5 and 2068 and 2193 and 2264 and 1273.5 | NM_005566 LUA#85 FlexMap level [1]: 129.5 and 862.5 and 1842.5 and 1550 and 1000 and 1282 and 1196 and 592 | NM_005736 LUA#1 FlexMap level [1]: 92 and 522 and 909 and 1432 and 1896 and 847 and 1205.5 and 695 | NM_005914 LUA#60 FlexMap level [1]: 303 and 1363 and 2538.5 and 2273 and 1739 and 1694 and 1933.5 and 1154.5 | NM_005915 LUA#72 FlexMap level [1]: 48 and 300 and 495 and 474 and 315.5 and 496 and 401.5 and 256.5 | NM_005952 LUA#66 FlexMap level [1]: 104 and 573 and 891 and 961 and 623.5 and 847.5 and 775 and 571 | NM_005980 LUA#73 FlexMap level [1]: 35.5 and 83 and 102 and 162 and 149 and 95 and 114 and 168 | NM_006019 LUA#35 FlexMap level [1]: 41 and 192.5 and 363 and 400.5 and 353 and 361 and 402 and 332 | NM_006138 LUA#56 FlexMap level [1]: 70 and 325.5 and 443 and 659.5 and 488 and 437 and 429 and 341 | NM_006432 LUA#27 FlexMap level [1]: 90 and 394 and 854.5 and 800 and 695 and 670 and 719 and 450 | NM_006452 LUA#71 FlexMap level [1]: 207.5 and 1176 and 1736 and 1656.5 and 1374 and 1531 and 1587 and 911.5 | NM_006457 LUA#13 FlexMap level [1]: 36 and 51 and 83 and 94 and 84 and 95 and 132 and 200 | NM_006773 LUA#47 FlexMap level [1]: 164 and 717 and 1137 and 1120.5 and 783 and 937.5 and 907 and 576.5 | NM_006948 LUA#51 FlexMap level [1]: 34 and 49 and 82 and 95 and 83 and 79.5 and 85.5 and 106.5 | NM_006985 LUA#58 FlexMap level [1]: 90 and 720 and 1223 and 1310 and 813 and 1136.5 and 983 and 635 | NM_007282 LUA#16 FlexMap level [1]: 778.5 and 3067.5 and 3626 and 3678 and 3097 and 3055 and 2958.5 and 1505 | NM_007331 LUA#50 FlexMap level [1]: 88 and 474 and 915.5 and 927.5 and 770 and 739 and 835 and 583 | NM_013402 LUA#54 FlexMap level [1]: 114 and 705 and 1150 (2×) and 806 and 1051.5 and 1087 and 711 | NM_014288 LUA#48 FlexMap level [1]: 154 and 477.5 and 801 and 816 and 527.5 and 706 and 650 and 453 | NM_014333 LUA#26 FlexMap level [1]: 180.5 and 949.5 and 1577 and 1549 and 1309 and 1337 and 1390 and 811 | NM_014366 LUA#61 FlexMap level [1]: 383 and 1773 and 2236 and 2380 and 1850 and 1787.5 and 1681.5 and 1009.5 | NM_014573 LUA#70 FlexMap level [1]: 43 and 143 and 320 and 325 and 274 and 243 and 407.5 and 300 | NM_014962 LUA#5 FlexMap level [1]: 152.5 and 726 and 1269 and 1290 and 1213 and 1076 and 1134 and 717 | NM_015201 LUA#57 FlexMap level [1]: 182 and 1154 and 1768 and 1714 and 1251 and 1398.5 and 1507 and 930.5 | NM_016061 LUA#9 FlexMap level [1]: 134 and 674 and 1086 and 1267.5 and 863 and 975 and 1073.5 and 741 | NM_017440 LUA#49 FlexMap level [1]: 101 and 405.5 and 707 and 774 and 716 and 607 and 693 and 477 | NM_018115 LUA#63 FlexMap level [1]: 746.5 and 3193 and 3722 and 4141 and 3225.5 and 3292.5 and 3054 and 1569 | NM_018164 LUA#69 FlexMap level [1]: 52 and 170 and 429 and 380 and 304.5 and 304 and 358.5 and 234 | NM_018217 LUA#3 FlexMap level [1]: 189 and 990 and 1514 and 1581 and 1499 and 1286 and 1386 and 854.5 | NM_018256 LUA#83 FlexMap level [1]: 102 and 717 and 1252 and 1104 and 692.5 and 1077 and 929 and 470 | NM_018890 LUA#33 FlexMap level [1]: 562 and 2557 and 3812.5 and 4178 and 4310 and 3724.5 and 2984 and 1462.5 | NM_019058 LUA#75 FlexMap level [1]: 258 and 1804 and 2807 and 2882 and 2288 and 2430 and 2201 and 1184 | NM_020117 LUA#78 FlexMap level [1]: 236.5 and 1585 and 2193 and 2242.5 and 1690 and 1988 and 1734 and 848.5 | NM_021103 LUA#41 FlexMap level [1]: 591.5 and 1730 and 2238 and 2731 and 2283 and 1975 and 1828.5 and 1027 | NM_021203 (LUA#80) FlexMap level [1]: 53 and 171 and 386 and 377.5 and 283.5 and 348 and 279 | NM_021974 LUA#64 FlexMap level [1]: 268 and 1606 and 2307 and 2301 and 1472 and 1996 and 1890 and 1117.5 | NM_024045 LUA#65 FlexMap level [1]: 85 and 495 and 831 and 833.5 and 527 and 681 and 728.5 and 471 | NM_032571 LUA#15 FlexMap level [1]: 31 and 109 and 203 and 222.5 and 165.5 and 191 and 270.5 and 253.5 | NM_173823 LUA#6 FlexMap level [1]: 84 and 594.5 and 1106.5 and 1168.5 and 1130.5 and 1080 and 1163 and 807 | TFRC LUA#92 FlexMap level [1]: 89 and 400 and 794 and 910.5 and 811 and 827.5 and 1042 and 592 | NM_021203 (LUA#80) FlexMap level (HL60 microtiter well cultures, one value per tretinoin well): 416 and 381.5 and 345 and 387 and 409 and 426 and 427 and 412
